In US6951878B2, “Benzo[b]thiophenyl or tetrahydro-benzo[b]thiophenyl modulators of protein tyrosine phosphatases (PTPases)” (Novo Nordisk A/S, priority 1998, dated 2005):
Where a name gives a salt, the structure may show the parent alone.

Target: T1, truncated form of PTP1B (corresponding to the first 321 amino acids) (Homo sapiens, UniProt P18031)
T1 construct: a truncated form of PTP1B (corresponding to the first 321 amino acids); made in house; host or cells: E. coli
T1 sequence (P18031 1-321): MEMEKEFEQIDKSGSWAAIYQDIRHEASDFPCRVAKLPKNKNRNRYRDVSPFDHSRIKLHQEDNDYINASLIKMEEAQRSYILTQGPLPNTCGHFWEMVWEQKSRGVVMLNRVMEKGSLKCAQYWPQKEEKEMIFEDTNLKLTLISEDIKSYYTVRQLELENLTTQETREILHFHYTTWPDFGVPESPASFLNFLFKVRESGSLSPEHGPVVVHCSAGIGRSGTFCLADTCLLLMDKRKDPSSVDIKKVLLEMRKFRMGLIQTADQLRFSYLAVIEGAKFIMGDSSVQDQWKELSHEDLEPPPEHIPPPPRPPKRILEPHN
Test: Inhibition of PTP1B, p-nitrophenyl phosphate substrate
Format: biochemical
Settings: substrate p-nitrophenyl phosphate 0.16 to 10 mM; 100 mM sodium acetate pH 5.5; 25° C. for 60 minutes; absorbance at 405 nm
Description: The assay conditions are as follows. Appropriate concentrations of the compounds of the invention are added to the reaction mixtures containing different concentrations of the substrate, p-nitrophenyl phosphate (range: 0.16 to 10 mM—final assay concentration). The buffer used was 100 mM sodium acetate pH 5.5, 50 mM sodium chloride, 0.1% (w/v) bovine serum albumin and 5 mM dithiothreitol (total volume […]). The reaction was started by addition of the enzyme and carried out in microtiter plates at 25° C. for 60 minutes. The reactions are stopped by addition of NaOH. […] The data are analyzed using nonlinear regression fit to classical Michaelis Menten enzyme kinetic models. Inhibition is expressed as Ki values in μM.

| Ki | Structure (SMILES) |
| --- | --- |
| 51 µM | O=C(O)C(=O)Nc1sc2c(c1C(=O)O)CCN(C(=O)c1ccccc1)C2 [Example 1, 6-Benzoyl-2-(oxalyl-amino)-4,5,6,7-tetrahydro-thien[2,3-c]pyridine-3-carboxylic acid, Mono Sodium Salt] |
| 3 µM | O=C(O)C(=O)Nc1sc2c(c1C(=O)O)CCN(CCc1ccccc1)C2 [Example 6] |
